Results from US8697630B2, “Method for lowering insulin resistance” (Nestec S.A., priority 2005, dated 2014).

Key:
[1] = target: T1, protein tyrosine phosphatase-1B (Homo sapiens, UniProt P18031); details: cited from earlier work
T1 sequence (P18031 1-435): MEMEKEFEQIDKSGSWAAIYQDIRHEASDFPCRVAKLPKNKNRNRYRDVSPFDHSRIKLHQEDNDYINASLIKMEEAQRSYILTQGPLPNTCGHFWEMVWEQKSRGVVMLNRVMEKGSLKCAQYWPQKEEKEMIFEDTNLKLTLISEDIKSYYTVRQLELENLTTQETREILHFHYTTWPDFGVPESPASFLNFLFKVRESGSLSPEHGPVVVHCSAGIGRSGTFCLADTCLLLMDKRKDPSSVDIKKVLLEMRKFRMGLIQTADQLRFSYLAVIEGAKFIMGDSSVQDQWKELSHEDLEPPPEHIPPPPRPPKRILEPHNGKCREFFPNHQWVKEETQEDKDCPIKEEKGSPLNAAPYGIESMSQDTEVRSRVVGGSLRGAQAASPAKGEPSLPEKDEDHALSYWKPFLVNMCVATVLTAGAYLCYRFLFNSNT

healthy subjects = details: 50 g; cited from earlier work
diabetic subjects = details: cited from earlier work; for plasma glucose peak level / time of plasma glucose peak: diabetic subjects; for change in insulin concentration: in vivo
adults = details: estimated; cited from earlier work
glucose transporter = target: T2, glucose transporter (Homo sapiens, UniProt P11166); details: cited from earlier work
T2 construct: various catechins tested on glucose transport from erythrocytes
T2 sequence (P11166 1-492): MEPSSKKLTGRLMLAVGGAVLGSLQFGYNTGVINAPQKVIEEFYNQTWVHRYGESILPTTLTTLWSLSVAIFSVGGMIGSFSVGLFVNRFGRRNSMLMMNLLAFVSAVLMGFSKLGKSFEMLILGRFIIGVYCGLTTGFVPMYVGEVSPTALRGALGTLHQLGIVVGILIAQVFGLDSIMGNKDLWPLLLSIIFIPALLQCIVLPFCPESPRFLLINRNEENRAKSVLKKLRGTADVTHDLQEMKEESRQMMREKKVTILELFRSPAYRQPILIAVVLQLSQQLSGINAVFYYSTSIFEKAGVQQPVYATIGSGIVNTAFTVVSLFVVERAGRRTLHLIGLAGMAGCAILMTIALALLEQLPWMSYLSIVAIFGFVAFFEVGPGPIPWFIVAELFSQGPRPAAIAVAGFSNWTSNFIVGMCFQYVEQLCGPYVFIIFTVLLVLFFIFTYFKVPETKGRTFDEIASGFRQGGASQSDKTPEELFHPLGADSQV

[2] = 1.5 mmole ingested, cited from earlier work
Zucker fa/fa rats = details: 100 mg/kg for 3-weeks; vs control obese rats; cited from earlier work
Wild Type C57BL/6J mice = experiment: Study 2/5: increasing 18:2 PUFA, insulin sensitivity; type: in vivo; details: 18:2 at 2%, 4%, 6% en; WT mice
Description: Studies 2 and 5 were combined (n=18) where we compared TYPE B Leptr (−/−) (Study2) with the Wild Type mouse (Study 5) used in the backcross for Leptr (−/−), i.e., C57BL/6J. Here, we also examined the effects of food restriction on TYPE B (which over eat like TYPE A because neither have leptin receptors) and added the design of increasing 18:2 PUFA (increments at 2%, 4%, 6% en) while assessing the insulin sensitivity response. […] They had lower glucose than TYPE A, better insulin testing, yet became obese and insulin resistant, glucose intolerant, etc. […] This was the second clue (after n 3 FA in Study 1) that the type and mass of fatty acid intake can have a big influence on mouse insulin dynamics.

ApoE (−/−) mice = experiment: Study 14: plasma total cholesterol, retinol, tocopherol; type: in vivo; details: 0.5 g/kg in 0.08% cholesterol diet vs same diet without statin; 14 weeks
Description: The objective of this study was to investigate the effect of a statin (Mevacor) on cholesterol levels. Each of three groups of ApoE (−/−) mice was fed one of three diets, each diet containing a different cholesterol level (i.e., 0, 0.4, and 0.8 g/kg). A fourth group was fed the diet containing 0.8 g/kg of cholesterol with the further inclusion of 0.5 g/kg of a statin (i.e., Mevacor).

[3] = test system: STZ-induced diabetic rats; details: following intravenous insulin tolerance testing; cited from earlier work
Type 2 diabetics = details: cited from earlier work
3T3-L1 cells = details: 240 nmol/L; cited from earlier work
alloxan diabetic rats = details: after six weeks; extract 100 mg/kg; cited from earlier work

For methylhydroxychalcone polymer [MHCP], the “inhibition of protein tyrosine phosphatase-1B” value [1] is given as “inhibits”.

For `OC[C@H]1O[C@H](OC[C@H]2OC(O)(CO)[C@@H](O)[C@@H]2O)[C@H](O)[C@@H](O)[C@@H]1O` (stereo partly shown) [isomaltulose], the blood glucose peak (healthy subjects) is given as 110.9 ± 4.9 mg/dL, the “time of blood glucose peak” value (healthy subjects) is given as 60 min and the “plasma glucose peak level” value (diabetic subjects) is given as 195 ± 14 mg/dL. The “time of plasma glucose peak” value (diabetic subjects) was 120 min, the change in insulin concentration (diabetic subjects) was 41.1 ± 7.4 µU/mL and the “minimum effect dose (mental concentration)” value (adults) was “more than 5 g”.

In the case of `O=C(O[C@@H]1Cc2c(O)cc(O)cc2O[C@@H]1c1cc(O)c(O)c(O)c1)c1cc(O)c(O)c(O)c1` [EGCG, epigallocatechin gallate], the “increase of affinity for the glucose transporter over EGC” value (glucose transporter) is given as 2 to 4 orders of magnitude, the Peak maximum [2] is given as 1.3 μmol. 1-1 and the “detection in the urine” value [2] is given as “not detected”. For the same compound, the “elimination T1/2” value ([2]; ten healthy volunteers) was 3.9 h.

For `C[C@@H]([C@H](C)O)[C@H](N)C(=O)O` [ID-1101, 4-hydroxyisoleucine], the hyperinsulinemia (Zucker fa/fa rats) is given as “reduced hyperinsulinemia”.

In the case of `CCCCC/C=C\C/C=C\CCCCCCCC(=O)O` [18:2, linoleic acid], the sensitivity to insulin (Wild Type C57BL/6J mice) is reported as “appeared to increase sensitivity to insulin”.

For `OC[C@H]1O[C@@](CO)(O[C@H]2O[C@H](CO)[C@@H](O)[C@H](O)[C@H]2O)[C@@H](O)[C@@H]1O` [sucrose], the blood glucose peak (healthy subjects) is listed as 143.3 ± 8.8 mg/dL, the “time of blood glucose peak” value (healthy subjects) is listed as 30 min and the “plasma glucose peak level” value (diabetic subjects) is listed as 237 ± 12 mg/dL. For the same compound, the “time of plasma glucose peak” value (diabetic subjects) was ≤ 60 min and the change in insulin concentration (diabetic subjects) was 59.3 ± 12 µU/mL.

In the case of `CC[C@H](C)C(=O)O[C@H]1C[C@@H](C)C=C2C=C[C@H](C)[C@H](CC[C@@H]3C[C@@H](O)CC(=O)O3)[C@H]21` [statin], the “liver, aortal, and plasma cholesterol levels” value (ApoE (−/−) mice) is reported as “significant reduction”.

In the case of `O=C(O)CCCCC1CCSS1` (stereo not shown) [LA, Lipoic acid], the “reduction in the area under the glucose curve” value [3] is given as 13%, the “reduction of lactate and pyruvate after oral glucose loading” value (Type 2 diabetics; 1200 mg LA (oral) for 4-wks) is given as 45% and the “improvement of insulin sensitivity” value (Type 2 diabetics; 600, 1200 and 1800 mg/d oral) is given as 17%. The “oral dose reported to be safe” value (Type 2 diabetics; given as 3 doses of 600 mg) was “up to 1800 mg/d”.

For insulin: insulin, the “greatest glucose uptake relative to maximum uptake observed with BE” value (3T3-L1 cells) is given as 2.7 times and the “decrease in fasting blood glucose” value (alloxan diabetic rats) is given as -183.1 mg/dL.
